The text below walks through data of patent US5962531A, “5-aroylnaphthalene derivatives as anti-inflammatory agents” (Syntex (U.S.A.) Inc., priority 1998, dated 1999).

By IC50 is commonly meant the concentration needed to halve the response being measured.

For assay [1], the system named is Alzheimer's patients. The following applies: Rogers, J., et. al., Neurology, 43, 1609, (1993); cited from earlier work.
The subject of assay [2] is PGE2. Put plainly: Inhibition of eicosanoid (prostaglandin E2) synthesis in vivo, carrageenan air-pouch model in rats. The conditions noted are these: oral, male rats. Also on record: species or system rat. The protocol: In this assay, an air-pouch is created in the rat and the PGE2 levels in the air-pouch exudate are measured by enzyme immunoassay. Briefly, male rats were anesthetized using a 60:40 CO2 :O2 mixture and subsequently injected subcutaneously with 20 ml of sterilized air, under aseptic conditions, in the proximal area of the dorsum. This injection of sterile air causes the creation of a subcutaneous "air pouch". The next day, a further 10 ml of sterile air was injected into the previously formed pouch using the same technique. […] Control rats received vehicle alone. After 30 minutes, 5 ml of a 0.5% solution of carrageenan (Sigma, Lambda Type IV) was injected into the air pouch. The rats were euthanized 3 or 6 h after the compound administration. […] The total exudate volume was recorded, and the samples were analyzed for PGE2 and 6-keto PGF1 by ELISA (Titerzyme®, PerSeptive Diagnostics, Boston, Mass.) and TxB2 by radioimmuno assay (New England Nuclear Research, Boston, Mass., Catalog No. NEK-037), according to the manufacturer's directions.
The mean concentrations of PGE2 were calculated for each group. The anti-inflammatory activity of test materials is expressed as the percent inhibition of PGE2 formation in the test group relative to the control group.

Assay [3] has as its target T1, COX I (Homo sapiens, UniProt P23219).
T1 construct: made in house; baculovirus-infected insect cells according to the cited Barnett et al. 1994 (own knowledge)
Put plainly: Inhibition of COX I in vitro (radiometric assay, partially purified enzyme). It counts as biochemical. The protocol: (§1) The COX I and COX II inhibitory activity of compounds of this invention in vitro was determined using partially purified COX I and COX II enzymes, prepared as described in J. Barnett et. al., Biochim. Biophys.
(§2) COX I and COX II samples were diluted with Tris-HCl buffer (SOmM Tris-HCl, pH 7.9) containing 2 mM EDTA and 10% glycerol and reconstituted by incubating first with 2 mM phenol for 5 minutes and then with 1 micromolar hematin for an additional 5 minutes. 125 μl of the reconstituted COX I or COX II enzyme were preincubated for 10 minutes at room temperature in a shaking water bath with the compounds of the invention dissolved in 2-15 μl of DMSO or the carrier vehicles (control samples). The enzyme reaction was initiated by adding 25 μl of 1-[14 C]arachidonic acid (80,000-100,000 cpm/tube; 20 micromolar final concentration) and the reaction was allowed to continue for an additional 45 seconds. The reaction was terminated by adding 100 μl of 2N HCl and 750 μl water. An aliquot (950 μl) of the reaction mixture was loaded onto a 1 ml C18 Sep-Pak column (J. T. Baker, Phillipsburg, N.J.) which had been previously washed with 2-3 ml methanol and equilibrated with 5-6 ml distilled water. Oxygenated products were quantitatively eluted with 3 ml of acetonitrile/water/acetic acid (50:50:0.1, v/v) and the radioactivity in the eluate determined in a scintillation counter.

Assay [4] concerns carrageenan-induced paw edema. Put plainly: Inhibition of carrageenan-induced paw edema in the rat. It counts as in vivo. The conditions noted are these: oral, female rats. The protocol:
The anti-inflammatory activity of compounds of this invention was determined by measuring the inhibition of carrageenan-induced paw edema in the rat, using a modification of the method described in Winter C. A. et al., "Carrageenan-Induced Edema in Hind Paw of the Rat as an Assay for Anti-inflammatory Drugs" Proc. Soc. Exp. Biol. Med. 111, 544-547, (1962). This assay has been used as a primary in vivo screen for anti-inflammatoryactivity of most NSAIDs, and is considered predictive of human efficacy. Briefly, test materials were administered orally to female rats in a volume of 1 ml prepared as solutions or suspensions in an aqueous vehicle containing 0.9% sodium chloride, 0.5% sodium carboxymethyl-cellulose, 0.4% polysorbate 80, 0.9% benzyl alcohol and 97.3% distilled water. Control rats received vehicle alone. After 1 h 0.05 ml of a 0.5% solution of Carrageenan (Type IV Lambda, Sigma Chemical Co.) in 0.9% saline was injected into the subplantar region of the right hind paw. Three hours later the rats were euthanized in a carbon dioxide atmosphere; hind paws were removed by severing at the tatso-crural joint; and the left and right paws were weighed. The increase in weight of the right paw over the left paw was obtained for each animal and the mean increases were calculated for each group. The anti-inflammatory activity of the test materials is expressed as the percent inhibition of the increase in hind paw weight of the test group relative to the vehicle dosed control group.
The anti-inflammatory activities (expressed as % inhibition) of some of the compounds of the invention were: […]

The target of assay [5] is T2, COX II (Homo sapiens, UniProt P35354).
T2 construct: made in house; baculovirus-infected insect cells according to the cited Barnett et al. 1994 (own knowledge)
T2 sequence (P35354 18-604): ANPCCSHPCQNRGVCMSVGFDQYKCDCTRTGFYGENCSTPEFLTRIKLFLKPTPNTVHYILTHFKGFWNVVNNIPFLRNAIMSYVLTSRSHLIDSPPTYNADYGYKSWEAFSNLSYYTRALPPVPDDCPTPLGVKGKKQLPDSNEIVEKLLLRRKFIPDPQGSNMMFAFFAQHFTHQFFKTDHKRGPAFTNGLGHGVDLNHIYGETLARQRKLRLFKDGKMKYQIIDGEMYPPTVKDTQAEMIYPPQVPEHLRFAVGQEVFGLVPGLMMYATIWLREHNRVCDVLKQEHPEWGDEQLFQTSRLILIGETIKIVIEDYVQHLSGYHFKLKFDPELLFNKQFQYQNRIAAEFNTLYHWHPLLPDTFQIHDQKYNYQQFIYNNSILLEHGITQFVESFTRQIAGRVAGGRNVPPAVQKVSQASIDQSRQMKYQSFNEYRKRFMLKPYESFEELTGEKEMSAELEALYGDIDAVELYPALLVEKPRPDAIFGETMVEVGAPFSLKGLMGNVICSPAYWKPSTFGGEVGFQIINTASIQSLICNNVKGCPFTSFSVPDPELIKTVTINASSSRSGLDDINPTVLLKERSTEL
Put plainly: Inhibition of COX II in vitro (radiometric assay, partially purified enzyme). The assay is classed as biochemical. The protocol: as §1, §2

The structures appear in SMILES notation.

T1 sequence (P23219 24-599): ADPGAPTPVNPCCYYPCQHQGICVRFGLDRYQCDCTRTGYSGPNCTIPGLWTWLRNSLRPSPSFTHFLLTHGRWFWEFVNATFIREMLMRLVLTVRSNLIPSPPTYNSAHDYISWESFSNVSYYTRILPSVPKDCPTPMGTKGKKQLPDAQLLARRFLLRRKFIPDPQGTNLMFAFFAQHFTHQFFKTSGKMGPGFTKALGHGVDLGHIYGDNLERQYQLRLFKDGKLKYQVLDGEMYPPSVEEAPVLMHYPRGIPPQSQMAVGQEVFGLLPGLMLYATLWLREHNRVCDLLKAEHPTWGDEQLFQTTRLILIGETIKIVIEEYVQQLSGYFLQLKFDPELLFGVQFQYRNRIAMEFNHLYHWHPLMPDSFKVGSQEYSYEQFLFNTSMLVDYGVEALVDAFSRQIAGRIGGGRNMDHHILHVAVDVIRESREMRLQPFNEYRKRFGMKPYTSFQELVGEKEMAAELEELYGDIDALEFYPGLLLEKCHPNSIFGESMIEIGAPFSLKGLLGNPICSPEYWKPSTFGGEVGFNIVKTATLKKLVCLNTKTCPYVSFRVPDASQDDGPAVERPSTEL

As to `COc1ccc2c(c1)c(CC(=O)O)c(C)n2C(=O)c1ccc(Cl)cc1` [Indomethacin, reference compound], in assay [1], the “inhibition of cognitive decline of Alzheimer's patients” value is reported as “inhibit the cognitive decline of Alzheimer's patients”. For the same molecule, in assay [2] (2-5 mg/Kg), the “% Inhibition of air pouch PGE2 formation” value is given as greater than 70%.

`CS(=O)(=O)c1ccc2c(C(=O)c3ccccc3)c(C#N)ccc2c1` [compound 97, 5-benzoyl-6-cyano-2-methylsulfonylnaphthalene]: the results for the IC50 in assay [3] and in assay [5] were greater than 100000 nM and 800 nM, respectively. In addition, in assay [4] (30 mg/Kg), the “% Inhibition of paw edema” value is on record as 40%. In addition, the “% Inhibition of air pouch PGE2 formation” value in assay [2] (3 mg/Kg) amounted to 90%.

As to `NS(=O)(=O)c1ccc2c(C(=O)c3ccc(F)cc3)c(Cl)ccc2c1` [compound 66, 5-(4-fluorobenzoyl)-6-chloro-2-naphthalenesulfonamide], the IC50 in assay [3] was determined as 100000 nM; in assay [5] it was 300 nM. Besides, in assay [4] (12 mg/Kg), the “% Inhibition of paw edema” value is listed as 30%. Moreover, the “% Inhibition of air pouch PGE2 formation” value in assay [2] (1 mg/Kg) was 50%.
